These results are taken from patent US4810779A, “Decapeptides having hypotensive action and process for their preparation” (Enichem Elastomeri S.p.A., priority 1985, dated 1989).

Read-outs that look alike come from different tables or passages of the source. Where a SMILES comes first, the peptide text is derived from it. [ ]: non-standard residue; d: D form. pGlu = O=C1CC[C@@H](C(=O)O)N1; Orn = NCCC[C@H](N)C(=O)O Some results are limits rather than exact numbers.

Assay [1] concerns arterial pressure. As to the kind of experiment: Effect of the decapeptides on arterial pressure (injection into femoral vein of anaesthetized rats). The conditions noted are these: for Duration of hypotensive effect / Pressure Difference Maximum / Pressure Difference Minimum / hypotensive effect (in words): femoral vein; for Duration of hypotensive effect / Pressure Difference Maximum / Pressure Difference Minimum: anaesthetized rats. Type of assay: in vivo, C.D. male rats. Here is the method: (§1) The activity of the decapeptides of the present invention has been determined in vivo on C.D. male rats available from Charles-River Co., anesthetized by ethyl urethane.
(§2) The effect on the arterial pressure and on bradykinin potentating has been studied by injecting into femoral vein a decapeptide (I) in an amount of from 0.3 to 0.2 mg/kg of body weight.
Five C.D. male rats available from Charles River Co., of weight of 200-300 g, anaesthetized by ethyl urethane (1.75 g/kg by intraperitoneal way) are used.
After tracheal cannulating, the right-hand carotid artery is isolated and connected by cannula to a Hewlett-Packard Model 1280 pressure transducer.
From isolated left-hand carotid the arterial flow is recorded by means of Biotronex® electromagnetic flowmeter, and pressure variation wiith the (dp/dt), electrocardiogram (ECG) and the beats per minute (BPM) are recorded on Hewlett Packard Polygraph.
The decapeptides of the present invention have been tested by being injected into right-hand femoral vein at the dose of 0.3-0.2 mg/kg of body weight, and compared to the decapeptide (II) of the prior art.

The next assay deals with bradykinin. The assay is described as follows: Effect of decapeptides as bradykinin potentiators (injection into femoral vein soon before bradykinin). Type of assay: in vivo, Male C.D. rats. To be noted: for Duration of hypotensive effect (t) / Pressure Difference Maximum / Pressure Difference Minimum: bradykinin potentiation, femoral vein soon before bradykinin; for potentiation of the hypotensive effect / activity of bradykinin (in words): in vivo, male rats. Here is the method:
as §1, §2
Male C.D. rats of Charles-River race are treated as described in Example 8, and submitted to test by bradykinin.
Bradykinin is a physiologic peptide which, when injected into femoral vein, causes a fast but not long-lasting hypotensive effect, because it is rapidly degraded at pulmonary circulation level by the Angiotensin Conversion Enzyme (ACE).
The peptides of the present invention are tested by being injected into the right-hand femoral vein soon before bradykinin, and comparing them to the decapeptide of the prior art.

Assay [2] deals with arterial pressure. To be noted: injected into the femoral vein of rats; cited from earlier work.
The test system of assay [3] is arterial pressure. The conditions noted are these: cited from earlier work.

Turning to `CC[C@H](C)[C@H](NC(=O)[C@H](CCC(N)=O)NC(=O)[C@@H]1CCCN1C(=O)[C@H](CCCNC(=N)N)NC(=O)[C@@H]1CCCN1C(=O)[C@H](Cc1c[nH]c2ccccc12)NC(=O)[C@H](CC(C)C)NC(=O)[C@@H]1CCC(=O)N1)C(=O)N1CCC[C@H]1C(=O)N1CCC[C@H]1C(=O)O` [Decapeptide II, Glp-Leu-Trp-Pro-Arg-Pro-Gln-Ile-Pro-Pro-OH, reference compound] ([pGlu]LWPRPQIPP-OH), in the assay with arterial pressure [1] (0.3 mg/kg), the “Duration of hypotensive effect” value is 10 min, the “Pressure Difference Maximum” value stood at 15 mmHg and the “Pressure Difference Minimum” value is listed as 15 mmHg. In the assay on bradykinin (0.3 mg/kg), the “Duration of hypotensive effect (t)” value is 10 min, the “Pressure Difference Maximum” value was 15 mmHg and the “Pressure Difference Minimum” value is given as 15 mmHg. In the assay with arterial pressure [2], the “lowering in arterial pressure” value was “causes a lowering in arterial pressure” and the “potentiation of the activity of bradykinin” value is listed as “potentiates the activity of bradykinin, prolonging the hypotensive effect thereof”.

As for `CC[C@H](C)[C@H](NC(=O)[C@H](CCC(N)=O)NC(=O)[C@@H]1CCCN1C(=O)[C@H](CCCN)NC(=O)[C@@H]1CCCN1C(=O)[C@H](Cc1c[nH]c2ccccc12)NC(=O)[C@H](CC(C)C)NC(=O)[C@@H]1CCC(=O)N1)C(=O)N1CCC[C@H]1C(=O)N1CCC[C@H]1C(=O)O` [Decapeptide III, Glp-Leu-Trp-Pro-Orn-Pro-Gln-Ile-Pro-Pro-OH] ([pGlu]LWP[Orn]PQIPP-OH), in the assay with arterial pressure [1] (0.3 mg/kg), the “Duration of hypotensive effect” value is over 10 min, the “Pressure Difference Maximum” value turned out to be 20 mmHg and the “Pressure Difference Minimum” value was determined as 25 mmHg. Also, in the assay on arterial pressure [1] (in vivo, male rats), the eurhythmizing effect entry is given as “shows an eurhythmizing effect”; the “hypotensive effect (in words)” value is “stronger and more long-lasting hypotensive effect than decapeptide (II)”. Also, in the assay with bradykinin (0.3 mg/kg), the “Duration of hypotensive effect (t)” value was determined as 90 min, the “Pressure Difference Maximum” value was 15 mmHg and the “Pressure Difference Minimum” value was found to be 15 mmHg. For the same compound, the “potentiation of the hypotensive effect / activity of bradykinin (in words)” value with bradykinin is “potentiates the hypotensive effect of bradykinin”.

Take `CC(C)C[C@H](NC(=O)[C@@H]1CCC(=O)N1)C(=O)N[C@@H](Cc1c[nH]c2ccccc12)C(=O)N1CCC[C@H]1C(=O)N[C@@H](CCCN)C(=O)N1CCC[C@H]1C(=O)N[C@@H](Cc1c[nH]cn1)C(=O)N[C@H](C(=O)N1CCC[C@H]1C(=O)N1CCC[C@H]1C(=O)O)C(C)C` [Decapeptide IV, Glp-Leu-Trp-Pro-Orn-Pro-His-Val-Pro-Pro-OH] ([pGlu]LWP[Orn]PHVPP-OH): in the assay with arterial pressure [1] (0.2 mg/kg), the “Duration of hypotensive effect” value is under 10 min, the “Pressure Difference Maximum” value came out at 20 mmHg and the “Pressure Difference Minimum” value came to 25 mmHg. Further, the “hypotensive effect (in words)” value in the assay with arterial pressure [1] (in vivo, male rats) is “cause in vivo a hypotensive effect”. Besides, in the assay with bradykinin (0.2 mg/kg), the “Duration of hypotensive effect (t)” value was 45 min, the “Pressure Difference Maximum” value stood at 25 mmHg and the “Pressure Difference Minimum” value stood at 30 mmHg. In addition, the “potentiation of the hypotensive effect / activity of bradykinin (in words)” value in the assay with bradykinin is reported as “potentiate the activity of bradykinin”.

As to `CC(C)C[C@H](NC(=O)[C@@H]1CCC(=O)N1)C(=O)N[C@@H](Cc1c[nH]c2ccccc12)C(=O)N1CCC[C@H]1C(=O)N[C@@H](CCCNC(=N)N)C(=O)N1CCC[C@H]1C(=O)N[C@@H](Cc1c[nH]cn1)C(=O)N[C@H](C(=O)N1CCC[C@H]1C(=O)N1CCC[C@H]1C(=O)O)C(C)C` [Decapeptide V, Glp-Leu-Trp-Pro-Arg-Pro-His-Val-Pro-Pro-OH] ([pGlu]LWPRPHVPP-OH), in the assay on arterial pressure [1] (0.2 mg/kg), the “Duration of hypotensive effect” value is under 10 min, the “Pressure Difference Maximum” value was determined as 15 mmHg and the “Pressure Difference Minimum” value is recorded as 15 mmHg. In the assay on arterial pressure [1] (in vivo, male rats), the “hypotensive effect (in words)” value is “cause in vivo a hypotensive effect”. Besides, in the assay with bradykinin (0.2 mg/kg), the “Duration of hypotensive effect (t)” value is 30 min, the “Pressure Difference Maximum” value was found to be 15 mmHg and the “Pressure Difference Minimum” value is recorded as 30 mmHg. The “potentiation of the hypotensive effect / activity of bradykinin (in words)” value with bradykinin was “potentiate the activity of bradykinin”.

In the case of `CC[C@H](C)[C@H](NC(=O)[C@H](CCC(N)=O)NC(=O)[C@@H]1CCCN1C(=O)[C@H](CCCNC(=N)N)NC(=O)[C@@H]1CCCN1C(=O)[C@H](Cc1c[nH]c2ccccc12)NC(=O)[C@@H]1CCC(=O)N1)C(=O)N1CCC[C@H]1C(=O)N1CCC[C@H]1C(=O)O` [Teprotide], the antihypertensive action entry in the assay with arterial pressure [3] (administered orally) was “inactive when administered orally”; with arterial pressure [3] (intravenous administration), “powerful antihypertensive agent”.
